We go through one compound from paper doi:10.1101/2025.03.13.643086, “Granzyme-targeting quenched activity-based probes for assessing tumor response to immunotherapy” (bioRxiv, 2025).

A short description of the data set: Hydrolytic stability of qABPs in media (Cy5 fluorescence over time). The note with it: cell culture media (10% FBS), 24 h incubation. The data set is classed as physicochemical. Here is the method:
Supplementary Figure 1. E-2B-0B-2Quenching effect and stability of qABP 10. (A) The fluorescence for each probe (10 µM) was measured at Ex/Em: 640/670 nm. (B) The stability of qABP 10 in PBS and different cell culture media (supplemented with 10% FBS) was measured by monitoring the production of Cy5 fluorescence signal over time.
11 CO2- In-gel fluorescence: Cy5
Supplementary Figure 2. (A) Chemical structure of compound 11. (B) hGzmB labeling assay with 11. Recombinant human active GzmB (50 nM) was incubated with 8 or 11 (500 nM) for 1 h.
Protein samples were analyzed by SDS-PAGE and in-gel fluorescence scanning for Cy5 signal.
(1 picture or pasted object on this page, not shown here)
PBS RIPA Myelocult 17 In-gel fluorescence:
Supplementary Figure 8. Activity-based GzmA profiling. (A) Left: Dose-dependent labeling of GzmA with 16 and 17 in NK-92 cell lysates. Middle, Right: GzmA selective labeling in different cell lysates with 17 (Middle) and 16 (Right) (50 nM, 1 h, 37 °C). Briefly, cell lysates were prepared with RIPA lysis buffer, and 20 µg of proteins were incubated with 50 nM of 16 or 17 for 1 h at 37 °C and analyzed by SDS-PAGE. […]
dependent in situ labeling of GzmA in NK-92 cells with 14-17 (2 h, 37 °C). […] After denaturing with 4X SDS-reducing buffer, 20 µg of proteins were analyzed by SDS-PAGE and in-gel fluorescence scanning for Cy5 signal. […]

As for `CC[C@H](C)[C@H](NC(=O)CCCCCN1/C(=C/C=C/C=C/C2=[N+](CC)c3ccc(S(=O)(=O)O)cc3C2(C)C)C(C)(C)c2cc(S(=O)(=O)O)ccc21)C(=O)N[C@@H](CCC(=O)O)C(=O)N1CCC[C@H]1C(=O)NC(CS(=O)(=O)O)P(=O)(Oc1ccc(CCNC(=O)C2CCN(S(=O)(=O)c3ccccc3-c3c4ccc(=[N+]5CCc6ccccc65)cc-4oc4cc(N5CCc6ccccc65)ccc34)CC2)cc1)c1ccccc1` (stereo partly shown) [Compound 10, Cy5-IEPCya^PhP-QSY21], the hydrolyzed product result is “less than 50%”.
